US6133311A, “Method for preventing or treating elevated blood lipid level-related diseases by administering natural phenolic compounds” (priority 1998, dated 2000)

Key:
[1] = system: main artery (arterial endothelium); assay: analysis for fatty streak in the main artery of rabbits; format: in vivo, New Zealand White rabbits; conditions: for Fatty streak (proportion of stained region to total arterial area): 1% cholesterol diet plus 0.1% compound (Lovastatin 1 mg/kg), Control 35 ± 14; for layer of macrophage-lipid complex on the arterial endothelium: FIGS. 1B and 1C, control: thick layer
Method: (§1) 30 three-month-old male New Zealand White rabbits (Yeonam Horticulture and Animal Husbandry College, Korea), each weighing about 2.5 to 2.6 kg, were raised under a condition of temperature 20+2° C., relative humidity 55±5%, and photoperiod 12L/12D. The rabbits were divided into 5 groups and 5 groups of rabbits were fed with 5 different diets, i.e., RC4 diet (Oriental Yeast Co., Japan) containing 1% cholesterol (Control group, 1); 1% cholesterol plus 1 mg/kg Lovastatin® (Merck, U.S.A.) (Lovastatin® group, 2); 1% cholesterol plus 0.1% tannin (3); 1% cholesterol plus 0.1% gallic acid (4); and 1% cholesterol plus 0.1% ellagic acid (5), respectively. RC4 diet comprises 7.6% moisture, 22.8% crude protein, 2.8% crude fat, 8.8% crude ash, 14.4% crude cellulose and 43.6% soluble nitrogen-free substances. Tannin, gallic acid and ellagic acid were purchased from Sigma Chemical Co. (St. Louis, Mo.).
(§2) The rabbits were fed for 6 weeks while being allowed free access to the diets and water.
(Step 3) Analysis for fatty streak in the main artery
The chest of each of the rabbits sacrificed in Step 2 was incised. The downward portion of the main artery from the site 1 cm above the aortic valve was cut out in a length of about 5 cm and the fat surrounding the main artery was removed. The main artery was incised in the middle along the longitudinal axis and pinned to a dish. The moist artery was photographed and, then, the staining of fatty streaks was carried out in accordance with the method of Esper, E., et al. (J. Lab. Clin. Med., 121, 103-110 (1993)) as follows.
A part of the incised main artery was washed three times with anhydrous propylene glycol for 2 min. and stained for 30 min. with a saturated solution of Oil Red O (ORO, Sigma Co.) dissolved in propylene glycol. Thereafter, the artery was washed twice with 85% propylene glycol for 3 min. to remove remaining staining solution and, then washed with physiological saline. The artery was photographed and the photograph was traced. The area of stained region (fatty streak region) was determined with an image analyzer (LEICA, Q-600, Germany) and its proportion (%) to the total arterial area was calculated.
FIGS. 1A, 1B and 1C show the arteries of the rabbits administered with 1% cholesterol (Control group); 1% cholesterol plus 1 mg/kg Lovastatin® (Lovastatin® group); 1% cholesterol plus 0.1% ellagic acid, respectively.

[2] = system: liver cells around the central vein; assay: fatty liver: proportion of abnormal fat-containing cells in the liver of rabbits; format: in vivo, New Zealand White rabbits; conditions: for A: Proportion of abnormal fat-containing liver cells (grade): 1% cholesterol diet plus 0.1% compound (Lovastatin 1 mg/kg), mean of grades 1+ to 4+, Control 3.2 ± 0.3; for microscopic features of the liver: FIGS. 2B and 2C, around the central vein
Method: as §1, §2
(Step 5) Prevention of Hepatic Diseases

[3] = chemical analysis of blood of rabbits fed a high-cholesterol diet; format: in vivo, New Zealand White rabbits; conditions: for TG (triglyceride): Control 56 ± 38; for TC (total cholesterol): Control 1143 ± 260
Method: Effect of Tannin, Gallic acid or Ellagic acid in an Animal
(Step 1) Administration of tannin, gallic acid or ellagic acid to rabbits
as §1, §2
(Step 2) Chemical Analysis of Blood
After six weeks, the rabbits were anesthetized with an intramuscular injection of ketamine (50 mg/kg) in the femoral region and sacrificed. A blood sample was taken from the heart of each rabbit, allowed to stand for 2 hours and centrifuged at 3,000 rpm for 15 minutes and the supernatant serum was separated and stored in a freezer before use.
The chemical analysis of blood was carried out by employing a blood chemical analyzer (CIBA Corning 550 Express, USA) to determine the changes in GOT, GPT, γGTP, total cholesterol, HDL-cholesterol and triglyceride levels.

[4] = system: LDL receptor in the liver; conditions: Farmer, J. A., et al. (1995), cited from earlier work; for plasma LDL cholesterol level: by enhancing the activity of LDL receptor in the liver
[5] = rabbits, 1% cholesterol diet plus 0.1% compound (Lovastatin 1 mg/kg), 6 weeks

Compound	Fatty streak (proportion of stained region to total arterial area) ([1]; 6 weeks)	plaque formation in the endothelium of the main artery ([1]; 6 weeks)	layer of macrophage-lipid complex on the arterial endothelium ([1]; 6 weeks)	deposition of macrophages on the arterial endothelium ([1]; blood cholesterol level high)	A: Proportion of abnormal fat-containing liver cells (grade) ([2]; 6 weeks)	inhibition of the formation of fatty liver ([2]; 1% cholesterol diet, 6 weeks)	microscopic features of the liver [2]	effect on the liver function (adverse) ([3]; rabbit, in vivo)	TG (triglyceride) [3, 5]	TC (total cholesterol) [3, 5]	lipid metabolism and liver function ([3]; rabbits, 6 weeks)	γGTP ([3]; rabbits, 1% cholesterol diet plus 0.1% compound (Lovastatin 1 mg/kg), 6 weeks, Control 4.2 ± 0.9)	GPT ([3]; rabbits, 1% cholesterol diet plus 0.1% compound (Lovastatin 1 mg/kg), 6 weeks, Control 65 ± 9)	GOT ([3]; rabbits, 1% cholesterol diet plus 0.1% compound (Lovastatin 1 mg/kg), 6 weeks, Control 77 ± 8)	side effects [4]	plasma LDL cholesterol level [4]
O=c1oc2c(O)c(O)cc3c(=O)oc4c(O)c(O)cc1c4c23 [Ellagic acid, ellagic acid]	9 ± 2%	inhibit	no or very thin layers of macrophage-lipid complex	strongly inhibit	2.7	significantly inhibit the formation of fatty liver	almost all liver cells are of a normal shape	do not adversely affect on the liver function	25 ± 10 mg/dL	1000 ± 105 mg/dL	can improve	–	–	–	–	–
CC[C@H](C)C(=O)O[C@H]1C[C@@H](C)C=C2C=C[C@H](C)[C@H](CC[C@@H]3C[C@@H](O)CC(=O)O3)[C@H]21 [Lovastatin®, reference compound]	5%	–	no or very thin layers of macrophage-lipid complex	–	3.4 ± 0.5	–	many cells containing excessive fat were observed around the central vein	–	66 ± 17 mg/dL	1210 ± 263 mg/dL	–	12.4 ± 0.8 IU/l	73 ± 9 IU/l	125 ± 19 IU/l	increase in creatine kinase in the liver and rhabdomyolysis	may reduce the plasma LDL cholesterol level
CCC(C)(C)C(=O)O[C@H]1C[C@@H](C)C=C2C=C[C@H](C)[C@H](CC[C@@H]3C[C@@H](O)CC(=O)O3)[C@H]21 [Simvastatin®]	–	–	–	–	–	–	–	–	–	–	–	–	–	–	–	may reduce the plasma LDL cholesterol level
